Each structure is given as a SMILES string. Starred links: 1 amine or outer side, 2 acyl side, 3 side chain; linkers in the order of their positions; H or OH if unused. Positions of bridges follow the written chain, without caps; N, C: chain ends. Non-standard residues stand in square brackets, D forms with d. Residues, ends and D or L forms follow the SMILES beside them. *: point of attachment. Phe(3-NHCO(CH2)3SO2NH2) = N[C@@H](Cc1cccc(NC(=O)CCCS(N)(=O)=O)c1)C(=O)O; X57 = O=C(Cn1ccccc1=O)Nc1cccc(C[C@H](N[*:1])C(=O)[*:2])c1; DOTA = O=C(O)CN1CCN(CC(=O)O)CCN(CC(=O)*)CCN(CC(=O)O)CC1; X7 = O=C([C@H](Cc1cccc(N[*:3])c1)N[*:1])[*:2]; Phe(4-NH2) = Nc1ccc(C[C@H](N)C(=O)O)cc1; X55 = O=C1Nc2ccc(C(=O)*)cc2S(=O)(=O)N1; mXylylene = c1cc(C[*:1])cc(C[*:2])c1; X46 = NS(=O)(=O)c1c[nH]c(C(=O)*)c1; X49 = N#Cc1ccc(N2CCCN(*)CC2)c(F)c1; X36 = NS(=O)(=O)Cc1ccc(C(=O)*)cc1; X2 = O=C(CN1CCC(N[*:1])CC1)[*:2]; X52 = NS(=O)(=O)c1cnn(CC(=O)*)c1; X60 = NC(=O)c1ccc(N2CC(N*)C2)cc1; X65 = NS(=O)(=O)c1ccc(C(=O)*)cn1; tBuAla = CC(C)(C)C[C@H](N)C(=O)O; X1 = O=C(CN1CCN([*:1])CC1)[*:2]; X53 = Cc1cc2cc(CN*)ccc2[nH]c1=O; X71 = O=C1NC(=O)C(CC(=O)*)N1

The target of the first assay is T1, CAIX-expressing human HT-29 colorectal cancer cells (Homo sapiens, UniProt Q16790).
T1 construct: CAIX-expressing human HT-29 colorectal cancer cells; host or cells: HT-29 human colorectal cancer cells
Briefly: FACS binding assay (IC50 determination, competition with tracer 3BP-2776 or 3BP-4149). The conditions noted are these: FACS binding assay, HT-29 cells, competition with tracer 3BP-2776 (10 nM, biotin-labeled), 4° C., 1 hour; read-out: pIC50 category (activity) (converted). Put shortly:
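HT-29 cells in FACS buffer (PBS, 1% FCS) at 500.000 cells/ml were exposed to compounds competing with a labelled tracer, with biotinylated compounds detected by 1 μg/mL APC-streptavidin for 30 min on ice. APC/Cy5 median fluorescence was read by flow cytometry and IC50 derived by 4PL fit.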
For the molecule `C[C@@H](O)[C@@H]1NC(=O)[C@H](CC(C)(C)C)NC(=O)[C@H](Cc2cccc(NC(=O)CCCS(N)(=O)=O)c2)NC(=O)[C@H](CC(=O)O)NC(=O)[C@H]2CCCN2C(=O)[C@H](CCC(=O)O)NC(=O)[C@@H](NC(=O)[C@H](Cc2ccc(O)cc2)NC(=O)CN2CCN(C(=O)CN3CCN(CC(=O)O)CCN(CC(=O)O)CCN(CC(=O)O)CC3)CC2)CSCc2cccc(c2)CSC[C@@H](C(N)=O)NC(=O)[C@H](CO)NC(=O)[C@H](Cc2c[nH]c3ccccc23)NC1=O` [3BP-4449] ({DOTA}-[X1]YCE[dP]D[Phe(3-NHCO(CH2)3SO2NH2)][tBuAla]TWSC-NH2; linker 3-12 via mXylylene), the IC50 is under 10 nM.
The same measure, in the same setting: with `CC(C)C[C@@H]1NC(=O)[C@H](Cc2cccc(NC(=O)CCCS(N)(=O)=O)c2)NC(=O)[C@H](CC(=O)O)NC(=O)[C@H]2CCCN2C(=O)[C@H](CCC(=O)O)NC(=O)[C@@H](NC(=O)[C@H](CO)NC(=O)CN2CCN(C(=O)CN3CCN(CC(=O)O)CCN(CC(=O)O)CCN(CC(=O)O)CC3)CC2)CSCc2cccc(c2)CSC[C@@H](C(N)=O)NC(=O)[C@H](CO)NC(=O)[C@H](Cc2c[nH]c3ccccc23)NC(=O)[C@H]([C@@H](C)O)NC1=O` [3BP-4450] ({DOTA}-[X1]SCE[dP]D[Phe(3-NHCO(CH2)3SO2NH2)]LTWSC-NH2; linker 3-12 via mXylylene) the figure was under 10 nM; with `CC(C)C[C@@H]1NC(=O)[C@H](Cc2cccc(NC(=O)CCCS(N)(=O)=O)c2)NC(=O)[C@H](CC(=O)O)NC(=O)[C@H]2CCCN2C(=O)[C@H](CCC(=O)O)NC(=O)[C@@H](NC(=O)[C@H](CCCNC(=N)N)NC(=O)CN2CCN(C(=O)CN3CCN(CC(=O)O)CCN(CC(=O)O)CCN(CC(=O)O)CC3)CC2)CSCc2cccc(c2)CSC[C@@H](C(N)=O)NC(=O)[C@H](CO)NC(=O)[C@H](Cc2c[nH]c3ccccc23)NC(=O)[C@H]([C@@H](C)O)NC1=O` [3BP-4451] ({DOTA}-[X1]RCE[dP]D[Phe(3-NHCO(CH2)3SO2NH2)]LTWSC-NH2; linker 3-12 via mXylylene), under 10 nM.
Take `CC(C)C[C@@H]1NC(=O)[C@H](Cc2cccc(NC(=O)C3CCC(S(N)(=O)=O)CC3)c2)NC(=O)[C@H](CC(=O)O)NC(=O)[C@H]2CCCN2C(=O)[C@H](CCC(=O)O)NC(=O)[C@@H](NC(=O)[C@H](CCC(N)=O)NC(=O)CN2CCN(C(=O)CN3CCN(CC(=O)O)CCN(CC(=O)O)CCN(CC(=O)O)CC3)CC2)CSCc2cccc(c2)CSC[C@@H](C(N)=O)NC(=O)[C@H](CO)NC(=O)[C@H](Cc2c[nH]c3ccccc23)NC(=O)[C@H]([C@@H](C)O)NC1=O` (stereo partly drawn) [3BP-4787]: the IC50 was 100 to 794 nM.
In the case of `CC(C)C[C@@H]1NC(=O)[C@H](Cc2ccc(NC(=O)c3cc(S(N)(=O)=O)c[nH]3)cc2)NC(=O)[C@H](CC(=O)O)NC(=O)[C@H]2CCCN2C(=O)[C@H](CCC(=O)O)NC(=O)[C@@H](NC(=O)[C@H](CCC(N)=O)NC(=O)CN2CCN(C(=O)CN3CCN(CC(=O)O)CCN(CC(=O)O)CCN(CC(=O)O)CC3)CC2)CSCc2cccc(c2)CSC[C@@H](C(N)=O)NC(=O)[C@H](CO)NC(=O)[C@H](Cc2c[nH]c3ccccc23)NC(=O)[C@H]([C@@H](C)O)NC1=O` [3BP-4814] ({DOTA}-[X1]QCE[dP]D[Phe(4-NH2)](X46)LTWSC-NH2; linker 3-12 via mXylylene), the IC50 was 100 to 794 nM.
Same read-out and setting: the figure for `CC(C)C[C@@H]1NC(=O)[C@H](Cc2cccc(NC(=O)Cn3cc(C(=O)NO)nn3)c2)NC(=O)[C@H](CC(=O)O)NC(=O)[C@H]2CCCN2C(=O)[C@H](CCC(=O)O)NC(=O)[C@@H](NC(=O)[C@H](CCC(N)=O)NC(=O)CN2CCN(C(=O)CN3CCN(CC(=O)O)CCN(CC(=O)O)CCN(CC(=O)O)CC3)CC2)CSCc2cccc(c2)CSC[C@@H](C(N)=O)NC(=O)[C@H](CO)NC(=O)[C@H](Cc2c[nH]c3ccccc23)NC(=O)[C@H]([C@@H](C)O)NC1=O` [3BP-4847] is 100 to 794 nM.

The same assay, now with this note: FACS binding assay, HT-29 cells, competition with tracer 3BP-4149 (3 nM, Cy5-labeled), 4° C., 1 hour; read-out: pIC50 category (activity) (converted).
As for `CC(C)C[C@@H]1NC(=O)[C@H](Cc2cccc(NC(=O)Cn3ccccc3=O)c2)NC(=O)[C@H](CC(=O)O)NC(=O)[C@H]2CCCN2C(=O)[C@H](CCC(=O)O)NC(=O)[C@@H](NC(=O)[C@H](Cc2ccc(O)cc2)NC(=O)[C@@H](NC(=O)CN2CCC(NC(=O)CN3CCN(CC(=O)O)CCN(CC(=O)O)CCN(CC(=O)O)CC3)CC2)C(C)C)CSCc2cccc(c2)CSC[C@@H](C(N)=O)NC(=O)[C@H](CO)NC(=O)[C@H](Cc2c[nH]c3ccccc23)NC(=O)[C@H]([C@@H](C)O)NC1=O` [3BP-4370] ({DOTA}-[X2]VYCE[dP]D[X57]LTWSC-NH2; linker 4-13 via mXylylene), the IC50 is 10 to 79.4 nM.
As for `CC(C)C[C@@H]1NC(=O)[C@H](Cc2c[nH]c3ccccc23)NC(=O)[C@H](CCC(=O)NC2CN(c3ccc(C(N)=O)cc3)C2)NC(=O)[C@H]2CCCN2C(=O)[C@H](CCC(=O)O)NC(=O)[C@@H](NC(=O)[C@H](Cc2ccc(O)cc2)NC(=O)[C@@H](NC(=O)CN2CCC(NC(=O)CN3CCN(CC(=O)O)CCN(CC(=O)O)CCN(CC(=O)O)CC3)CC2)C(C)C)CSCc2cccc(c2)CSC[C@@H](C(N)=O)NC(=O)[C@H](CO)NC(=O)[C@H](Cc2c[nH]c3ccccc23)NC(=O)[C@H]([C@@H](C)O)NC1=O` [3BP-4388] ({DOTA}-[X2]VYCE[dP]E(X60)WLTWSC-NH2; linker 4-13 via mXylylene), the IC50 is 10 to 79.4 nM.
Regarding `CC(C)C[C@@H]1NC(=O)[C@H](Cc2c[nH]c3ccccc23)NC(=O)[C@H](CCC(=O)N2CCCN(c3ccc(C#N)cc3F)CC2)NC(=O)[C@H]2CCCN2C(=O)[C@H](CCC(=O)O)NC(=O)[C@@H](NC(=O)[C@H](Cc2ccc(O)cc2)NC(=O)[C@@H](NC(=O)CN2CCC(NC(=O)CN3CCN(CC(=O)O)CCN(CC(=O)O)CCN(CC(=O)O)CC3)CC2)C(C)C)CSCc2cccc(c2)CSC[C@@H](C(N)=O)NC(=O)[C@H](CO)NC(=O)[C@H](Cc2c[nH]c3ccccc23)NC(=O)[C@H]([C@@H](C)O)NC1=O` [3BP-4389] ({DOTA}-[X2]VYCE[dP]E(X49)WLTWSC-NH2; linker 4-13 via mXylylene), the IC50 was 10 to 79.4 nM.
Consider `Cc1cc2cc(CNC(=O)CC[C@@H]3NC(=O)[C@H]4CCCN4C(=O)[C@H](CCC(=O)O)NC(=O)[C@@H](NC(=O)[C@H](Cc4ccc(O)cc4)NC(=O)[C@@H](NC(=O)CN4CCC(NC(=O)CN5CCN(CC(=O)O)CCN(CC(=O)O)CCN(CC(=O)O)CC5)CC4)C(C)C)CSCc4cccc(c4)CSC[C@@H](C(N)=O)NC(=O)[C@H](CO)NC(=O)[C@H](Cc4c[nH]c5ccccc45)NC(=O)[C@H]([C@@H](C)O)NC(=O)[C@H](CC(C)C)NC(=O)[C@H](Cc4c[nH]c5ccccc45)NC3=O)ccc2[nH]c1=O` [3BP-4390] ({DOTA}-[X2]VYCE[dP]E(X53)WLTWSC-NH2; linker 4-13 via mXylylene), for which the IC50 is 10 to 79.4 nM.
With `CC(C)C[C@@H]1NC(=O)[C@H](Cc2ccc(NC(=O)c3ccc(CS(N)(=O)=O)cc3)cc2)NC(=O)[C@H](CC(=O)O)NC(=O)[C@H]2CCCN2C(=O)[C@H](CCC(=O)O)NC(=O)[C@@H](NC(=O)[C@H](Cc2ccc(O)cc2)NC(=O)[C@@H](NC(=O)CN2CCC(NC(=O)CN3CCN(CC(=O)O)CCN(CC(=O)O)CCN(CC(=O)O)CC3)CC2)C(C)C)CSCc2cccc(c2)CSC[C@@H](C(N)=O)NC(=O)[C@H](CO)NC(=O)[C@H](Cc2c[nH]c3ccccc23)NC(=O)[C@H]([C@@H](C)O)NC1=O` [3BP-4399] ({DOTA}-[X2]VYCE[dP]D[Phe(4-NH2)](X36)LTWSC-NH2; linker 4-13 via mXylylene), the IC50 was 10 to 79.4 nM.
`CC(C)C[C@@H]1NC(=O)[C@H](Cc2cccc(NC(=O)c3ccc4c(c3)S(=O)(=O)NC(=O)N4)c2)NC(=O)[C@H](CC(=O)O)NC(=O)[C@H]2CCCN2C(=O)[C@H](CCC(=O)O)NC(=O)[C@@H](NC(=O)[C@H](Cc2ccc(O)cc2)NC(=O)[C@@H](NC(=O)CN2CCC(NC(=O)CN3CCN(CC(=O)O)CCN(CC(=O)O)CCN(CC(=O)O)CC3)CC2)C(C)C)CSCc2cccc(c2)CSC[C@@H](C(N)=O)NC(=O)[C@H](CO)NC(=O)[C@H](Cc2c[nH]c3ccccc23)NC(=O)[C@H]([C@@H](C)O)NC1=O` [3BP-4415] ({DOTA}-[X2]VYCE[dP]D[X7](X55)LTWSC-NH2; linker 4-13 via mXylylene): the IC50 is 100 to 794 nM.
In the case of `CC(C)C[C@@H]1NC(=O)[C@H](Cc2ccc(NC(=O)CC3NC(=O)NC3=O)cc2)NC(=O)[C@H](CC(=O)O)NC(=O)[C@H]2CCCN2C(=O)[C@H](CCC(=O)O)NC(=O)[C@@H](NC(=O)[C@H](Cc2ccc(O)cc2)NC(=O)[C@@H](NC(=O)CN2CCC(NC(=O)CN3CCN(CC(=O)O)CCN(CC(=O)O)CCN(CC(=O)O)CC3)CC2)C(C)C)CSCc2cccc(c2)CSC[C@@H](C(N)=O)NC(=O)[C@H](CO)NC(=O)[C@H](Cc2c[nH]c3ccccc23)NC(=O)[C@H]([C@@H](C)O)NC1=O` (stereo partly drawn) [3BP-4458] ({DOTA}-[X2]VYCE[dP]D[Phe(4-NH2)](X71)LTWSC-NH2; linker 4-13 via mXylylene), the IC50 was 10 to 79.4 nM.
For the molecule `CC(C)C[C@@H]1NC(=O)[C@H](Cc2ccc(NC(=O)c3ccc(S(N)(=O)=O)nc3)cc2)NC(=O)[C@H](CC(=O)O)NC(=O)[C@H]2CCCN2C(=O)[C@H](CCC(=O)O)NC(=O)[C@@H](NC(=O)[C@H](CCC(N)=O)NC(=O)CN2CCN(C(=O)CN3CCN(CC(=O)O)CCN(CC(=O)O)CCN(CC(=O)O)CC3)CC2)CSCc2cccc(c2)CSC[C@@H](C(N)=O)NC(=O)[C@H](CO)NC(=O)[C@H](Cc2c[nH]c3ccccc23)NC(=O)[C@H]([C@@H](C)O)NC1=O` [3BP-4481] ({DOTA}-[X1]QCE[dP]D[Phe(4-NH2)](X65)LTWSC-NH2; linker 3-12 via mXylylene), the IC50 was 100 to 794 nM.
With `CC(C)C[C@@H]1NC(=O)[C@H](Cc2ccc(NC(=O)Cn3cc(S(N)(=O)=O)cn3)cc2)NC(=O)[C@H](CC(=O)O)NC(=O)[C@H]2CCCN2C(=O)[C@H](CCC(=O)O)NC(=O)[C@@H](NC(=O)[C@H](CCC(N)=O)NC(=O)CN2CCN(C(=O)CN3CCN(CC(=O)O)CCN(CC(=O)O)CCN(CC(=O)O)CC3)CC2)CSCc2cccc(c2)CSC[C@@H](C(N)=O)NC(=O)[C@H](CO)NC(=O)[C@H](Cc2c[nH]c3ccccc23)NC(=O)[C@H]([C@@H](C)O)NC1=O` [3BP-4482] ({DOTA}-[X1]QCE[dP]D[Phe(4-NH2)](X52)LTWSC-NH2; linker 3-12 via mXylylene), the IC50 is 100 to 794 nM.
